Data set [1] in a line: spontaneous hydrolysis (half-life of the S-nitroso bond) in physiologic buffer (PSS). Type of data set: physicochemical. Conditions: 37° C. Here is the method: FIG. 1 depicts a graph showing the spontaneous hydrolysis of S-nitrosocaptopril in PBS. Each point represents the mean ±SEM of four experiments performed in duplicate.
The half-life of the S-nitroso bond of S-nitrosocaptopril in physiologic buffer and in plasma was determined by incubating purified S-nitrosocaptopril in aerated PSS or in PPP, the results of which are shown in FIG. 1.

The target in data set [2] is T1, ACE (Rattus norvegicus, UniProt P47820).
T1 sequence (P47820 36-1313): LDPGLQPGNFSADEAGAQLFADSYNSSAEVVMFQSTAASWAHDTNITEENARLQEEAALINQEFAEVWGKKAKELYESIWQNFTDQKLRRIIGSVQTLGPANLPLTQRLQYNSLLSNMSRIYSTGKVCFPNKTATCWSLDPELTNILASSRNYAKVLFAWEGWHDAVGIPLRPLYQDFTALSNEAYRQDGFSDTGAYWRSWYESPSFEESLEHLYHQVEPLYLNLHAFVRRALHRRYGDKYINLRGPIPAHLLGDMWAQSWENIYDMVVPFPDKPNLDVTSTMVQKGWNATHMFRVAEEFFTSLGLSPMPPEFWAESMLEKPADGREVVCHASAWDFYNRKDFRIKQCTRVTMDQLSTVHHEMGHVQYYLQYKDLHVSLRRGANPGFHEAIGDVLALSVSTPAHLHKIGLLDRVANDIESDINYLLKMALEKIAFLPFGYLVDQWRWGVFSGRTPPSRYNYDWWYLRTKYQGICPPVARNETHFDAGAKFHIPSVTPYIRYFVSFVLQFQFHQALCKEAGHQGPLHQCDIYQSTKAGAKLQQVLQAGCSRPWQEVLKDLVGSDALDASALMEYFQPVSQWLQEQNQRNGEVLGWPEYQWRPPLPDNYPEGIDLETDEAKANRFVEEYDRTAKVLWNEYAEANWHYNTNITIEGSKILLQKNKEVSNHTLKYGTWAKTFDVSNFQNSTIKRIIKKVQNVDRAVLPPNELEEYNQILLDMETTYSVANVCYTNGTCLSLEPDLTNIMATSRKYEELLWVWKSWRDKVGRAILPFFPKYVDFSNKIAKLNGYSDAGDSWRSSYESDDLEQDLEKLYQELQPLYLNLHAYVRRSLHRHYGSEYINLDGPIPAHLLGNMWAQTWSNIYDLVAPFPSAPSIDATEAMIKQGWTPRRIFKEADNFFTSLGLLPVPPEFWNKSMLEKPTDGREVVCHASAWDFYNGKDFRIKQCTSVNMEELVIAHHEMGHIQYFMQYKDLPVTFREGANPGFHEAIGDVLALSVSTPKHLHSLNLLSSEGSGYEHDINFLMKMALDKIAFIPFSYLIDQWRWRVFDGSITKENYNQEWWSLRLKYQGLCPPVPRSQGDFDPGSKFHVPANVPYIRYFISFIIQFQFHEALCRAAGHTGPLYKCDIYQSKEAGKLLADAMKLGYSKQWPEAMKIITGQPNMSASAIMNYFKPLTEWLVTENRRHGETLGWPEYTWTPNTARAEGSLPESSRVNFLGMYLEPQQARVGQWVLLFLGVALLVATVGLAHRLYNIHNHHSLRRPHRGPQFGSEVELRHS
In words: ACE inhibition, rat lung source of ACE. In kind it is biochemical. As to conditions: 10^-10 to 10^-8.
Method: Under the conditions of this assay (0.1M potassium phosphate, pH 8.3, 0.3M NaCl at 37°), ACE preparations generated 6.32 nmoles of product/mg protein/min.

Data set [3] concerns platelets. In words: platelet aggregation in PRP induced by ADP. In kind it is cell-based, human. Conditions: Homo sapiens, Platelet, 11 μM ADP. Here is the method:
FIG. 7 depicts a graph showing the effect of S-nitrosocaptopril on platelet aggregation. Platelets in PRP were incubated with S-nitrosocaptopril over a range of concentrations for three minutes, after which ADP was added to a final concentration of 11 uM. The maximal rate of aggregation was measured and plotted as a percentage of that observed in the absence of S-nitrosocaptopril. Each point represents the mean ±SEM of five experiments each performed in duplicate.
Platelets. Volunteers who had not ingested acetylsalicylic acid for at least ten days provided venous blood within one hour of use. […] Platelet counts were determined using a Coulter counter (Model ZM; Coulter Electronics, Hialeah, Fla.) and adjusted with platelet-poor plasma (PPP) to 1.5×10^8 platelets/ml prior to use.
Platelet Aggregation. Platelet aggregation was monitored using a standard nephelometric technique (Born and Cross, J. Physiol (London) 168:178-195 (1963)) in which PRP was incubated at 37° with a final concentration of 11 μM ADP and stirred at 900 rpm in a Payton dual channel aggregometer (Payton Associates, Inc., Buffalo, N.Y.). Aggregation was quantitated by measuring either the maximal rate of change of light transmittance or the extent of change of light transmittance. […]

The test system of data set [4] is bovine femoral artery, response to bradykinin. In words: response of the bovine femoral artery to bradykinin. As to conditions: 10^-6 M. As to the method:
Blood Vessel Preparation. Bovine coronary or femoral arteries were obtained from an abattoir immediately after sacrifice of two- to four-week-old calves. Immediately after removal, the vessel was placed in ice-cold physiologic salt solution (PSS) containing 118.3 mM NaCl, 4.7 mM KCl, 2.5 mM CaCl2, 1.2 mM MgSO4, 1.2 mM KH2 PO4, 25.0 mM NaHCO3, 11.1 mM glucose, and 0.026 mM calcium disodium (ethylenedinitrilo)-tetraacetate. The vessels were then cleaned of adventitial tissue and cut into rings of approximately 5 mm lengths. When called for by the protocol, endothelium was removed from a ring by gently rubbing the luminal surface with a watchmaker's forceps. Vascular rings with intact endothelium were then suspended in organ chambers containing 25 ml of PSS at 37° aerated with 95% O2 -5% CO2. The rings were connected to force transducers (Grass FT03C, Quincy, Mass.) and changes in isometric force recorded continuously (Grass Polygraph Model 79B) over a period of 90 minutes. The optimal length-tension relationship was determined for each ring by observing the response to 10^-6 M norepinephrine after increments in tension of 0.5 gm. The functional integrity of the endothelium was assessed by contracting the vessel with 10^-6 M norepinephrine and then observing the response to 3×10^-7 M acetylcholine chloride.
In the bovine femoral artery contracted with a concentration of norepinephrine inducing a half-maximal response, bradykinin induced a biphasic response.

In the case of `C[C@H](CSN=O)C(=O)N1CCC[C@H]1C(=O)O` [S-nitrosocaptopril], in data set [1], the “estimated half-life of the S-nitroso bond (thiol-bound, mercurous-displaceable nitrite)” value is reported as “approximately 2.8 hours”. In data set [2], the “ACE inhibition (in words, FIG. 6)” value is listed as “almost complete inhibition of ACE”. Also, the IC50 in data set [3] was roughly 80 µM. Besides, in data set [4], the “effect on the response to bradykinin (in words)” value is reported as “Neither response to bradykinin was affected”.

The IC50 is the midpoint of a concentration-inhibition curve.

The values above are taken from US5536723A, “S-nitroso derivatives of hydrazinoacetic acids, 1-[(acylthio and (mercapto)-1-oxoalkyl]-1,2,34-Tetrahydroquinoline-2-carboxylic acids and alanyl prolines and isoquinolines” (Brigham & Women's Hospital, priority 1994, dated 1996).
